Laboratory results reported in article PMC6104039 (Nature Communications, 2018).
Where “and” joins values, the source holds several entries; their conditions need not be identical. Equal values may be shown once.

Legend:
[1] = P053 accumulation in tissues, LC-MS/MS; assay type: in vivo, mice; details: 5 mg/kg daily for 2 weeks
[2] = test system: liver; experiment: Mitochondrial markers in liver (Western blots, citrate synthase, βHAD); design: species or system mice; details: mouse, in vivo
Experimental: Tissues were homogenized in RIPA buffer (100 mM NaCl, 10 mM Tris, pH 7.4, 1% Triton X-100, 0.5% sodium deoxycholate, 0.1% SDS, 1 mM EDTA, 10% Glycerol) containing complete protease inhibitor cocktail (Roche) and phosphatase inhibitors (3 mM β-glycerophosphate, 1 mM sodium orthovanadate, 5 mM sodium fluoride) by bead-beating in a Precellys 24 at 4 °C. Extracts were centrifuged at 6500 rpm for 10 min at 4 °C. Supernatant was collected and protein concentrations determined with the Bicinchoninic acid (BCA) assay (Thermo Scientific). […] All antibodies were used at a dilution of 1:1000. A common loading control was included on every gel to account for variation in relative band intensities between different blots. Antibody-antigen binding was detected using ECL Reagent (GE Healthcare) and imaged on a Fujifilm Las-4000 CCD camera. Bands were quantified by densitometry with Fuji ImageQuantTL software.
Liver and tibialis muscle were homogenized 1:19 (w/v) in 50 mM Tris-HCl, 1 mM EDTA, 0.1% Triton X-100, pH 7.4. The homogenates were subjected to three freeze-thaw cycles and centrifuged for 10 min at 7000 × g at 4 °C. Supernatants were used to determine the activity of CS and βHAD[66].

[3] = test system: SkM; experiment: Real-time PCR of respiratory complex subunits and regulators of mitochondrial biogenesis in SkM; assay type: in vivo, mice
Experimental: PCR (40 cycles) was performed on a LightCycler 480 (Roche) using SensiFAST SYBR mastermix (Bioline). For quantification of CerS1 and CerS2 expression, total RNA was purified from mouse tissues with TRIzol reagent (Sigma-Aldrich), followed by DNase treatment (Promega), and reverse transcribed using random hexamer primers with FirstStrand cDNA synthesis kit (Roche), according to manufacturer’s instructions. CerS1 and CerS2 gene expression was determined using a standard curve of Ct against input cDNA, and normalised to 18s RNA. For mitochondrial genes and transcriptional regulators in SkM, total RNA was prepared with TRIzol, and oligo dT primer was used for reverse transcription. Relative gene expression was determined using the ΔΔCt method, with 36B4 and Rpl13 as the reference genes. Samples with excessively high Ct values (Ct > 30 for the housekeeping genes) were removed from data analysis (two samples for Fig. 6a, four samples for Fig. 6g). Gene-specific primers were as follows: […]

[4] = test system: HEK293 cells; experiment: Non-viable cells by propidium iodide staining and flow cytometry, 72 h; assay type: cell-based; details: at or below 1 μM
Experimental: Lipid levels are expressed as a percentage of vehicle control levels. […] All graphs show combined data from two independent experiments, each with 3 (a) or 4 (b-d) separate cell treatments, mean ± SEM. Statistical significance in (b-d) was determined by t-tests adjusted for multiple comparisons, comparing all lipids (22 lipids tested in total) at each concentration to the control group; ^+P < 0.05; ^#P < 0.01; *P < 0.001

[5] = test system: SkM homogenates; experiment: 14C-palmitate oxidation in SkM homogenates of treated mice; assay type: in vivo; details: chow and HFD-fed mice, 6 weeks
Experimental: Tibialis muscles were homogenized in 19 volumes of 250 mM sucrose, 10 mM Tris-HCl and 1 mM EDTA, pH 7.4.

[6] = test system: cerebellum; experiment: Ceramide, SM and HexCer levels in cerebellum; assay type: in vivo, mice; details: Chow + P053; individual mice, raw data for Supplementary Figure 7;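 on Cer 18:1/18:0 content of cerebellum: pmol per mg cerebellum tissue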;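 on Cer 18:1/24:0 content of cerebellum: pmol per mg cerebellum tissue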;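 on Cer 18:1/24:1 content of cerebellum: pmol per mg cerebellum tissue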;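 on Cer 18:2/18:0 content of cerebellum: pmol per mg cerebellum tissue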;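 on HexCer 18:1 content of cerebellum: pmol per mg cerebellum tissue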;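 on HexCer 20:1 content of cerebellum: pmol per mg cerebellum tissue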;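 on HexCer 22:1 content of cerebellum: pmol per mg cerebellum tissue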;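 on HexCer 24:0 content of cerebellum: pmol per mg cerebellum tissue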;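 on SM 32:1 content of cerebellum: pmol per mg cerebellum tissue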;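 on SM 34:2 content of cerebellum: pmol per mg cerebellum tissue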;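 on SM 36:1 content of cerebellum: pmol per mg cerebellum tissue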;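 on SM 36:2 content of cerebellum: pmol per mg cerebellum tissue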;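 on SM 40:1 content of cerebellum: pmol per mg cerebellum tissue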
Text: Supplementary Figure 7. […] Ceramide, SM, and HexCer […]
levels in the cerebellum of vehicle- or P053-treated mice on a chow or HFD. N = 10 mice per group, except for chow vehicle group (n = 9). Mean ± SEM shown. No lipids were […]
comparisons. C18:0 HexCer was 45% lower in the P053-treated compared to the vehicle-treated HFD group (unadjusted P value = 0.02; adjusted value P = 0.16). Raw data for these figures is provided in Supplementary Data File 1.

levels of the compound in brain tissue compared to SkM [1]: three-fold lower
uptake in the liver [1]: substantial uptake
SMILES: C[C@@](N)(CO)CCc1ccc(OCc2ccc(Cl)c(Cl)c2)cc1 [P053, (S)-2-amino-4-(4-(3,4-dichlorobenzyloxy)phenyl)-2-methylbutan-1-ol]
compound distribution in tissues [1]: higher in liver and kidney than in muscle and adipose tissue
mitochondrial markers in liver [2]: no increase
expression of Gabp1α and Nfe2l2 [3]: significantly increased
genes encoding respiratory complex subunits (Co-2, Cytb, Atp6, Ndufb5, Atp5o, Cycs, Cox5b) [3]: significant up-regulation
HEK293 cell viability [4]: no effect
oxidation of 14C-palmitate in muscle homogenates [5]: increased oxidation
Cer 18:1/16:0 content of cerebellum [6]: 3.617 and 2.396 and 2.239 and 1.878 and 1.763 and 7.091 and 4.235 and 4.186 and 2.745 and 2.729
Cer 18:1/18:0 content of cerebellum [6]: 141.97 and 85.5119 and 108.595 and 104.792 and 97.4561 and 431.392 and 196.381 and 275.197 and 135.779 and 146.615
Cer 18:1/20:0 content of cerebellum [6]: 10.8793 and 8.155 and 10.4755 and 10.5072 and 6.176 and 36.1314 and 20.5959 and 26.7359 and 12.6268 and 16.6128
Cer 18:1/22:0 content of cerebellum [6]: 14.5276 and 15.0246 and 22.6132 and 25.2761 and 10.65 and 51.7937 and 37.5604 and 49.7318 and 29.1858 and 28.3511
Cer 18:1/24:0 content of cerebellum [6]: 25.164 and 39.1513 and 61.4338 and 64.1688 and 24.2127 and 137.911 and 88.346 and 158.631 and 89.2495 and 92.5091
Cer 18:1/24:1 content of cerebellum [6]: 194.92 and 106.297 and 150.541 and 182.076 and 61.3337 and 311.08 and 260.185 and 253.268 and 147.127 and 119.244
Cer 18:2/18:0 content of cerebellum [6]: 6.1678 and 7.469 and 7.847 and 9.952 and 5.015 and 15.2517 and 13.7543 and 19.4608 and 12.754 and 10.8001
HexCer 16:0 content of cerebellum [6]: 2.618 and 11.905 and 12.0787 and 17.3566 and 8.981 and 4.913 and 10.616 and 11.083 and 11.1713 and 10.2043
HexCer 18:0 content of cerebellum [6]: 28.8093 and 286.922 and 231.007 and 375.961 and 165.705 and 81.8257 and 140.616 and 234.577 and 281.805 and 232.737
HexCer 18:1 content of cerebellum [6]: 4.066 and 35.919 and 27.4449 and 39.8082 and 28.3147 and 12.0017 and 18.6127 and 33.0051 and 39.5714 and 38.2232
HexCer 20:0 content of cerebellum [6]: 5.379 and 62.6592 and 42.0891 and 61.8563 and 40.4642 and 16.7817 and 19.6222 and 44.5602 and 56.0811 and 52.6344
HexCer 20:1 content of cerebellum [6]: 0.8503 and 3.88 and 2.4108 and 3.569 and 3.668 and 1.176 and 1.073 and 2.879 and 4.092 and 4.073
HexCer 22:0 content of cerebellum [6]: 103.858 and 933.202 and 709.42 and 853.076 and 744.844 and 421.086 and 403.774 and 821.636 and 996.669 and 1011.42
HexCer 22:1 content of cerebellum [6]: 67.4582 and 171.007 and 113.764 and 201.906 and 106.093 and 35.9387 and 77.6418 and 92.6997 and 107.257 and 90.5981
HexCer 24:0 content of cerebellum [6]: 564.043 and 4618.59 and 3773.48 and 4286.71 and 3653.78 and 2395.46 and 2157.01 and 3975.05 and 5039.63 and 4758.34
HexCer 24:1 content of cerebellum [6]: 3233.35 and 7019.2 and 5377.98 and 7770.21 and 6449.16 and 3511.89 and 4048.72 and 5184.76 and 6290.34 and 5656.27
SM 32:1 content of cerebellum [6]: 7.744 and 10.8885 and 9.082 and 12.3443 and 9.858 and 7.664 and 8.692 and 8.551 and 8.187 and 8.4615
SM 34:1 content of cerebellum [6]: 82.5407 and 146.305 and 94.5019 and 129.483 and 151.913 and 73.8551 and 80.0167 and 90.7654 and 102.782 and 113.569
SM 34:2 content of cerebellum [6]: 7.207 and 9.9108 and 8.648 and 11.4512 and 8.062 and 5.446 and 4.538 and 7.185 and 8.297 and 8.329
SM 36:1 content of cerebellum [6]: 194.844 and 464.875 and 291.749 and 380.257 and 596.135 and 225.303 and 199.676 and 294.675 and 315.392 and 396.468
SM 36:2 content of cerebellum [6]: 59.5005 and 77.3429 and 59.1592 and 95.459 and 61.3204 and 42.7823 and 27.3474 and 61.4896 and 55.0172 and 56.8047
SM 38:1 content of cerebellum [6]: 38.445 and 174.02 and 119.141 and 145.805 and 204.374 and 106.701 and 86.1831 and 141.777 and 157.803 and 199.243
SM 38:2 content of cerebellum [6]: 7.207 and 11.8634 and 6.682 and 10.3765 and 10.2552 and 3.609 and 2.903 and 5.065 and 7.083 and 7.8
SM 40:1 content of cerebellum [6]: 51.2464 and 304.001 and 220.117 and 327.562 and 242.07 and 125.331 and 158.353 and 223.684 and 258.853 and 295.067
